The record followed here is patent publication US20250326748A1, “COMPOUNDS AND METHODS FOR MODULATING SPLICING” (REMIX THERAPEUTICS INC., priority 2022, published 2025).

One assay deals with SMN2 mRNA. The assay can be described thus: Splicing RT-qPCR panel, SMN2 canonical junction (CJ) mRNA. Format: cell-based, human. The note with it: Homo sapiens, read-out: SMN2 CJ (decrease in CJ mRNA levels, IC50). In outline:
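A673 cells (DMEM, 10% FBS) or K562 cells (IMDM, 10% FBS) treated 24 h at 37 °C with an 11-point 3-fold dilution, top 10 uM, DMSO ≤0.25%. Canonical-junction mRNA quantified in lysates by RT-qPCR, normalised to GAPDH, GUSB or PPIA and to DMSO (2^−ΔΔCt), then converted to % response.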
On the technique in general: In qPCR the cycle at which signal appears reflects the starting amount.

In another assay the test system is HiBiT-tagged HTT protein. The assay can be described thus: HiBiT protein abundance assay, HTT (K562 HiBiT knock-in). Format: cell-based, human. The conditions noted are these: HiBiT knock-in cells, 24 hours. In outline: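 Endogenously HiBiT-tagged K562 knock-in lines treated 24 h at 37 °C with 10-point 3-fold dilutions (top 10 μM final, DMSO ≤0.25%) in IMDM+1% FBS. Lytic Nano-Glo luminescence normalized to DMSO and unmodified K562 controls; four-parameter fit gives 50%-abundance concentration (IC50).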
Background: HiBiT is a short tag that completes a luciferase, so light tracks the accessible tagged protein.

Usually IC50 stands for the concentration that inhibits the measured activity by half. As for `Cn1cc2cc(-c3ccc4cc(N5CC[C@H](NC(C)(C)C)C5)cnc4n3)c(O)cc2n1` (single isomer, unassigned) [Compound 200], the IC50 was under 100 nM with SMN2 mRNA and 1000 to 10000 nM in the assay on HiBiT-tagged HTT protein.

In the case of `CNC1CCN(c2cnc3nc(-c4cc(F)c5nc(C)cn5c4)ccc3c2)C1` (centres unmarked) [Compound 100, 1-(7-{8-fluoro-2-methylimidazo[1,2-a]pyridin-6-yl}-1,8-naphthyridin-3-yl)-N-methylpyrrolidin-3-amine], the IC50 with SMN2 mRNA was under 100 nM; in the assay with HiBiT-tagged HTT protein, 100 to 1000 nM.

Regarding `Cn1cc2cc(-c3cnc4nc(N5CCNCC5)cc(Cl)c4c3)cc(F)c2n1` [Compound 101, 4-chloro-6-(7-fluoro-2-methyl-2H-indazol-5-yl)-2-(piperazin-1-yl)-1,8-naphthyridine], the IC50 in the assay on SMN2 mRNA is under 100 nM; in the assay on HiBiT-tagged HTT protein, 1000 to 10000 nM.

For `Cn1cc2cc(-c3cc(Cl)c4cc(N5CCNCC5)cnc4n3)c(O)cc2n1` [Compound 102, 5-[4-chloro-6-(piperazin-1-yl)-1,8-naphthyridin-2-yl]-2-methylindazol-6-ol], the values for the half-maximal inhibitory concentration (IC50) in the assay on SMN2 mRNA and in the assay on HiBiT-tagged HTT protein were under 100 nM and 100 to 1000 nM, respectively.

As for `Cn1cc2cc(-c3cc(Cl)c4cc(N5CCNCC5)cnc4n3)cc(F)c2n1` [Compound 103], the 50% inhibitory concentration (IC50) was under 100 nM in the assay on SMN2 mRNA and 100 to 1000 nM in the assay on HiBiT-tagged HTT protein.

In the case of `Cc1c(O)c(-c2cc(Cl)c3cc(N4CCNCC4)cnc3n2)cc2cn(C)nc12` [Compound 154, 5-[4-chloro-6-(piperazin-1-yl)-1,8-naphthyridin-2-yl]-2,7-dimethylindazol-6-ol], the 50% inhibitory concentration (IC50) was under 100 nM in the assay with SMN2 mRNA and 100 to 1000 nM in the assay with HiBiT-tagged HTT protein.

As for `Cn1cc2cc(-c3cc(Cl)c4cc(N5CCNCC5)cnc4n3)c(O)c(F)c2n1` [Compound 155, 5-[4-chloro-6-(piperazin-1-yl)-1,8-naphthyridin-2-yl]-7-fluoro-2-methylindazol-6-ol], the half-maximal inhibitory concentration (IC50) with SMN2 mRNA and with HiBiT-tagged HTT protein was under 100 nM in each case.

For the compound `Cc1c(O)c(-c2ncc3cc(N4CC[C@@H](N)C4)cnc3n2)cc2cn(C)nc12` [Compound 159, (R)-5-(6-(3-aminopyrrolidin-1-yl)pyrido[2,3-d]pyrimidin-2-yl)-2,7-dimethyl-2H-indazol-6-ol 2,2,2-trifluoroacetate], the half-inhibitory concentration (IC50) in the assay with SMN2 mRNA and with HiBiT-tagged HTT protein was under 100 nM in each case.

For `Cc1c(O)c(-c2ncc3cc(N4CC[C@H](N)C4)cnc3n2)cc2cn(C)nc12` [Compound 160, (S)-5-(6-(3-aminopyrrolidin-1-yl)pyrido[2,3-d]pyrimidin-2-yl)-2,7-dimethyl-2H-indazol-6-ol 2,2,2-trifluoroacetate], the IC50 in the assay on SMN2 mRNA and in the assay on HiBiT-tagged HTT protein was under 100 nM each time.

In the case of `CNC1CCN(c2cnc3nc(-c4cc5cn(C)nc5c(C)c4O)nc(OC)c3c2)C1` (centres unmarked) [Compound 161, 5-{4-methoxy-6-[3-(methylamino)pyrrolidin-1-yl]pyrido[2,3-d]pyrimidin-2-yl}-2,7-dimethylindazol-6-ol], the half-maximal inhibitory concentration (IC50) in the assay with SMN2 mRNA is under 100 nM; in the assay on HiBiT-tagged HTT protein, 100 to 1000 nM.

Turning to `COc1nc(-c2cc3cn(C)nc3c(C)c2O)nc2ncc(N3CCNCC3)cc12` [Compound 162, 5-[4-methoxy-6-(piperazin-1-yl)pyrido[2,3-d]pyrimidin-2-yl]-2,7-dimethylindazol-6-ol], the results for the 50% inhibitory concentration (IC50) in the assay with SMN2 mRNA and in the assay on HiBiT-tagged HTT protein were under 100 nM and 100 to 1000 nM, respectively.

In the case of `COc1nc(-c2cc3cn(C)nc3c(C)c2O)nc2ncc(N3CCC(N(C)C)CC3)cc12` [Compound 163, 5-{6-[4-(dimethylamino)piperidin-1-yl]-4-methoxypyrido[2,3-d]pyrimidin-2-yl}-2,7-dimethylindazol-6-ol], the IC50 with SMN2 mRNA was under 100 nM; with HiBiT-tagged HTT protein, 1000 to 10000 nM.

In the case of `Cn1cc2cc(-c3cnc4cc(N5CCC(NC6CC6)C5)ccc4n3)c(O)c(F)c2n1` (centres unmarked) [Compound 175, 5-[6-[3-(cyclopropylamino)pyrrolidin-1-yl]quinoxalin-2-yl]-7-fluoro-2-methyl-indazol-6-ol], the 50% inhibitory concentration (IC50) in the assay on SMN2 mRNA and in the assay with HiBiT-tagged HTT protein was under 100 nM each time.

On to `Cn1cc2cc(-c3cnc4cc(N5CC[C@H](NC6CC6)C5)ccc4n3)c(O)c(F)c2n1` [Compound 176, 5-[6-[(3S)-3-(cyclopropylamino)318quinoxaline-1-yl]318quinoxaline-2-yl]-7-fluoro-2-methyl-indazol-6-ol], for which the half-inhibitory concentration (IC50) with SMN2 mRNA and with HiBiT-tagged HTT protein was under 100 nM throughout.

For `Cn1cc2cc(-c3cnc4cc(N5CC[C@@H](NC6CC6)C5)ccc4n3)c(O)c(F)c2n1` [Compound 177, 5-[6-[(3R)-3-(cyclopropylamino)318quinoxaline-1-yl]318quinoxaline-2-yl]-7-fluoro-2-methyl-indazol-6-ol], the 50% inhibitory concentration (IC50) in the assay on SMN2 mRNA and in the assay with HiBiT-tagged HTT protein was under 100 nM in each case.

On to `Cn1cc2cc(-c3cnc4nc(N5CCC(NC6CC6)C5)ccc4n3)c(O)c(F)c2n1` (centres unmarked) [Compound 178, 5-[6-[3-(cyclopropylamino)pyrrolidin-1-yl]pyrido[2,3-b]pyrazin-2-yl]-7-fluoro-2-methyl-indazol-6-ol], for which the IC50 was under 100 nM with SMN2 mRNA and 100 to 1000 nM in the assay on HiBiT-tagged HTT protein.

Turning to `Cc1nc2c(C)c(O)c(-c3cnc4cc(N5CCC(NC6CC6)C5)ccc4n3)cc2o1` (centres unmarked) [Compound 182, 6-[6-[3-(cyclopropylamino)pyrrolidin-1-yl]quinoxalin-2-yl]-2,4-dimethyl-1,3-benzoxazol-5-ol], the concentration for half-maximal inhibition (IC50) with SMN2 mRNA and with HiBiT-tagged HTT protein was under 100 nM each time.

For `CNC1CCN(c2cnc3nc(-c4cc5cn(C)nc5c(C)c4O)ccc3n2)C1` (centres unmarked) [Compound 192, 2,7-dimethyl-5-{2-[3-(methylamino)337pyrrolidine-1-yl]pyrido[2,3-b]pyrazin-6-yl}indazol-6-ol], the IC50 was under 100 nM in the assay on SMN2 mRNA and 100 to 1000 nM with HiBiT-tagged HTT protein.

On to `CNC1CCN(c2cnc3nc(-c4cc5cn(C)nc5c(C)c4O)cc(Cl)c3n2)C1` (centres unmarked) [Compound 193, 5-{8-chloro-2-[3-(methylamino)355pyrrolidine-1-yl]pyrido[2,3-b]pyrazin-6-yl}-2,7-dimethylindazol-6-ol], for which the figures for the concentration for half-maximal inhibition (IC50) with SMN2 mRNA and with HiBiT-tagged HTT protein were under 100 nM and 100 to 1000 nM, respectively.

Regarding `CNC1CCN(c2cnc3nc(-c4cc5cn(C)nc5c(C)c4O)cc(OC)c3n2)C1` (centres unmarked) [Compound 194, 5-{8-methoxy-2-[3-(methylamino)360pyrrolidine-1-yl]pyrido[2,3-b]pyrazin-6-yl}-2,7-dimethylindazol-6-ol], the IC50 lay within 100 to 1000 nM in the assay with SMN2 mRNA and 1000 to 10000 nM in the assay with HiBiT-tagged HTT protein.

As for `Cc1c(O)c(-c2ccc3nc(N4C[C@@H](C)N[C@@H](C)C4)cnc3n2)cc2cn(C)nc12` [Compound 195, 5-{2-[(3R,5S)-3,5-dimethylpiperazin-1-yl]pyrido[2,3-b]pyrazin-6-yl}-2,7-dimethylindazol-6-ol], the half-inhibitory concentration (IC50) is under 100 nM in the assay with SMN2 mRNA and 1000 to 10000 nM with HiBiT-tagged HTT protein.

Consider `Cc1c(O)c(-c2ccc3nc(N4CCNCC4)cnc3n2)cc2cn(C)nc12` [Compound 197, 2,7-dimethyl-5-[2-(piperazin-1-yl)pyrido[2,3-b]pyrazin-6-yl]indazol-6-ol], for which the results for the half-inhibitory concentration (IC50) in the assay on SMN2 mRNA and in the assay on HiBiT-tagged HTT protein were under 100 nM and 100 to 1000 nM, respectively.

On to `Cc1c(O)c(-c2ccc3nc(N4CCC(N(C)C)CC4)cnc3n2)cc2cn(C)nc12` [Compound 198], for which the IC50 was under 100 nM in the assay with SMN2 mRNA and 1000 to 10000 nM in the assay on HiBiT-tagged HTT protein.

Turning to `Cn1cc2cc(-c3ccc4cc(N5CC[C@@H](NC(C)(C)C)C5)cnc4n3)c(O)cc2n1` [Compound 199], the concentration for half-maximal inhibition (IC50) in the assay on SMN2 mRNA lay within 100 to 1000 nM; in the assay on HiBiT-tagged HTT protein, 1000 to 10000 nM.

With `Cc1cn2cc(-c3cnc4nc(C5CCNCC5)ccc4c3)cc(C)c2n1` [Compound 201], the IC50 with SMN2 mRNA was under 100 nM; in the assay on HiBiT-tagged HTT protein, over 10000 nM.
